Source: ChEMBL document CHEMBL1201862, “PubChem BioAssay data set” (2004)
Active and inactive are the calls of the source.

Experiments:
[1] = HGIII-sPLA2 enzyme inhibition potency – biochemical, QFRET, IC50, dose response (AID 743457);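 also: green fluorescence rise as the enzyme cleaves BODIPY PC-A2 in liposomes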
[2] = system: BJ; test: BJ-TERT fibroblast viability loss – cell-based, RAS-independent, luminescence, dose response (AID 1933); assay type: functional; conditions: Homo sapiens
[3] = system: BJ; test: BJ-TERT-LT-ST fibroblast viability loss – cell-based, RAS-independent, luminescence, dose response (AID 1935); assay type: functional; conditions: Homo sapiens;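 also: BJ fibroblasts immortalized with TERT plus LT and ST oncogenes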
[4] = DRD fibroblast viability loss – cell-based, non-viral oncogenic, luminescence, dose response (AID 1934); assay type: functional; conditions: Homo sapiens
[5] = system: BJ; test: cells; assay type: functional, cell-based; conditions: Homo sapiens
[6] = IC50 of Artemis nuclease activity blockers – biochemical, fluorescence intensity, dose response (AID 720701); assay type: functional;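 also: Artemis endonuclease enzyme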
[7] = cells; assay type: functional, cell-based
[8] = cells; assay type: functional, cell-based; remark: listed apart in the source
[9] = target: T1, Trace amine-associated receptor 1 (Homo sapiens, UniProt Q96RJ0); test: Fluorescence-based cell-based high throughput dose response assay to identify agonists of the human trace amine associated receptor 1 (TAAR1).; assay type: functional
T1 sequence (Q96RJ0 whole entry): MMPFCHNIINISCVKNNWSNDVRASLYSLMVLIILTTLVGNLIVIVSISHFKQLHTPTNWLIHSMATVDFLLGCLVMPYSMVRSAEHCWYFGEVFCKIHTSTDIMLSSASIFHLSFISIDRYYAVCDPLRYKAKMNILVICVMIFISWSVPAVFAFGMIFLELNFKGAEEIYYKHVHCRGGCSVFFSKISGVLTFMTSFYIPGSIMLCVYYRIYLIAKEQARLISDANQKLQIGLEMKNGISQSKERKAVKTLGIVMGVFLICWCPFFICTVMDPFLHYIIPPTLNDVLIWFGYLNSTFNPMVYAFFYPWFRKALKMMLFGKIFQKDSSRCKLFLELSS

[10] = target: T1, Trace amine-associated receptor 1; test: Counterscreen for agonists of the human trace amine associated receptor 1 (hTAAR1): Fluorescence-based cell-based high throughput dose response assay to identify hTAAR1 agonist that also desensitize TAAR1 receptor response.; assay type: functional
[11] = system: Streptococcus sp. 'group A'; test: Streptococcus pyogenes SK(-)GAS viability under kanamycin – luminescence, BacTiterGlo, confirmation, counter-screen for streptokinase expression inhibitor project, dose response (AID 1900); assay type: functional, organism-based
[12] = system: Streptococcus; test: GAS UMAA2166 growth inhibition – luminescence, BacTiterGlo, counter-screen for streptokinase expression inhibitor project, dose response (AID 1915); assay type: functional, organism-based;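 also: potency for reduction of bacterial viability or growth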
[13] = target: T2, Protein RecA (Mycobacterium tuberculosis, UniProt P9WHJ3); test: Fluorescence Cell-Free Homogeneous Dose Retest to Identify Inhibitors of RecA-Intein Splicing Activity. [Related pubchem assays (depositor defined):AID2097, AID2223, AID489010, AID492950]; assay type: functional
T2 sequence (P9WHJ3 whole entry): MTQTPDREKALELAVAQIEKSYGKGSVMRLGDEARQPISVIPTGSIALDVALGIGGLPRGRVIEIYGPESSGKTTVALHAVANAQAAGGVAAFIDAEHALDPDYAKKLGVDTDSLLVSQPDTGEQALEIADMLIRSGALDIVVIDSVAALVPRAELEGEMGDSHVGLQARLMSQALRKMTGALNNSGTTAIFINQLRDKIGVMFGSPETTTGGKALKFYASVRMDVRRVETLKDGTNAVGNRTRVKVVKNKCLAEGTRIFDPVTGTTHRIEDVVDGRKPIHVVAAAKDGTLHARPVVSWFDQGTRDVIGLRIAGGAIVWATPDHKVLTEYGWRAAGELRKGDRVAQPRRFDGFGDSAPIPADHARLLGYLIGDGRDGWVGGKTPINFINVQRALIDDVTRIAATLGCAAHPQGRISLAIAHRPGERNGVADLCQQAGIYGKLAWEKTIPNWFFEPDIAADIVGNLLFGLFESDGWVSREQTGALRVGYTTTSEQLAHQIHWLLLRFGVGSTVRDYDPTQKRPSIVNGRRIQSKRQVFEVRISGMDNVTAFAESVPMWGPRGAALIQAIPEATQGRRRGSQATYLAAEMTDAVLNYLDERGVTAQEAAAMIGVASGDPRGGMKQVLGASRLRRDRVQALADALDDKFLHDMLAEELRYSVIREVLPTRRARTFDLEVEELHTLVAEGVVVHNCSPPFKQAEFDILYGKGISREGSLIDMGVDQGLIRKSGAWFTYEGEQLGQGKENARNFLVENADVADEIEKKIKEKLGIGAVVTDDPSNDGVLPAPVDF

[14] = target: Large T antigen (Simian virus 40, UniProt P03070); assay type: functional, Betapolyomavirus macacae;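 also: Confirmatory-stage PubChem screen for compounds that inhibit SV40 T antigen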
[15] = target: T3, Replicative DNA helicase DnaB (Mycobacterium tuberculosis, UniProt P9WMR3); test: DnaB intein splicing inhibitors, dose response, biochemical, cell-free fluorescence (AID 449749); assay type: functional
T3 sequence (P9WMR3 whole entry): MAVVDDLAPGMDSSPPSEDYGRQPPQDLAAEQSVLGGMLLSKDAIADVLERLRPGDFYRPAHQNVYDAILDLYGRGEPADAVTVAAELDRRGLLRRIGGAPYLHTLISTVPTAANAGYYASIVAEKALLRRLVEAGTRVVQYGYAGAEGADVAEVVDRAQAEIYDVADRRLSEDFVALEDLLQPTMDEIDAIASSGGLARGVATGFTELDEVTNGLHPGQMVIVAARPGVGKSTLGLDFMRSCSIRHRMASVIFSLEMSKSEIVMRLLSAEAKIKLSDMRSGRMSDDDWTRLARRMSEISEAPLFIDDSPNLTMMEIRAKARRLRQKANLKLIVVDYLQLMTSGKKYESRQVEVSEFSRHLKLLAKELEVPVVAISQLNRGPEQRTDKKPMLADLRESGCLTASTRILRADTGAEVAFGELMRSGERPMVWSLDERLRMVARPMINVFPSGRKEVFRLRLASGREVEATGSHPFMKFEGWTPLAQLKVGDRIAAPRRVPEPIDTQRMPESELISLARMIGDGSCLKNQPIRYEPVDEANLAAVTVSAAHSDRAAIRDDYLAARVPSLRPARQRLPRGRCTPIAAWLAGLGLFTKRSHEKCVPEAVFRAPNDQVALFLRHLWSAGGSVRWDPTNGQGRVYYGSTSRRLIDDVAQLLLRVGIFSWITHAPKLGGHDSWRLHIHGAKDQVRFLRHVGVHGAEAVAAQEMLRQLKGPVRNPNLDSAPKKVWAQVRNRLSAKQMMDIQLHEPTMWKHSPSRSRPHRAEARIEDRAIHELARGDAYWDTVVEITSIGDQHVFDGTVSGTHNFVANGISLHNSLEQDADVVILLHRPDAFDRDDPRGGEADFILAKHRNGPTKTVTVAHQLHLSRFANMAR

[16] = viability loss in THP-1 monocytes – THP-1 cells, cytotoxicity control for Vif-APOBEC3G degradation inhibitor project, dose response (AID 1117359); assay type: functional; conditions: THP-1
[17] = IGROV1 cell killing – plate reader, dry powder samples, PAX8 inhibitor project, dose response (AID 743043); assay type: functional, cell-based; conditions: IGROV-1
[18] = OVCAR8 cell viability loss – plate reader, dry powder samples, PAX8 project, dose response (AID 743197); assay type: functional, cell-based; conditions: OVCAR-8
[19] = target: Paired box protein Pax-8 (Homo sapiens, UniProt Q06710); test: PAX8 transcriptional activity inhibition in RMG-I – RMG-I cells, luciferase, cherry-pick, dose response (AID 687027); assay type: functional, cell-based;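 also: luciferase reporter driven by Pax8 target thyroperoxidase promoter measured by SteadyGlo luminescence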
[20] = OVCAR-3 cell viability loss – plate reader, dry powder samples, PAX8 inhibitor project, dose response (AID 743044); assay type: functional, cell-based
[21] = general mammalian cell viability loss – inhibitor set, cherry-pick, set 2, cytotoxicity control for miR-122 modulator project, dose response (AID 720697); assay type: functional, cell-based
[22] = growth inhibition of PfATP4-mutant resistant parasites – NITD609-resistant line, SYBR Green, dry powder, dose response (AID 1159571); assay type: functional, cell-based;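 also: parasites synchronized at ring stage by sorbitol before testing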
[23] = growth inhibition of yeast DHODH-expressing 3D7 parasites – SYBR Green, dry powder samples, dose response (AID 1159570); assay type: functional, cell-based;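 also: parasite growth measured after 72 hours of compound exposure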
[24] = P. falciparum Dd2 growth inhibitors, dose response, SYBR Green, cherry-picked samples (AID 1159567); assay type: functional, cell-based
[25] = Dd2 malaria parasite growth inhibition potency – SYBR Green, dry powder samples, dose response (AID 1159566); assay type: functional, cell-based;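 also: potency for growth inhibition with lower SYBR green DNA signal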

Large T antigen, sequence (P03070 whole entry): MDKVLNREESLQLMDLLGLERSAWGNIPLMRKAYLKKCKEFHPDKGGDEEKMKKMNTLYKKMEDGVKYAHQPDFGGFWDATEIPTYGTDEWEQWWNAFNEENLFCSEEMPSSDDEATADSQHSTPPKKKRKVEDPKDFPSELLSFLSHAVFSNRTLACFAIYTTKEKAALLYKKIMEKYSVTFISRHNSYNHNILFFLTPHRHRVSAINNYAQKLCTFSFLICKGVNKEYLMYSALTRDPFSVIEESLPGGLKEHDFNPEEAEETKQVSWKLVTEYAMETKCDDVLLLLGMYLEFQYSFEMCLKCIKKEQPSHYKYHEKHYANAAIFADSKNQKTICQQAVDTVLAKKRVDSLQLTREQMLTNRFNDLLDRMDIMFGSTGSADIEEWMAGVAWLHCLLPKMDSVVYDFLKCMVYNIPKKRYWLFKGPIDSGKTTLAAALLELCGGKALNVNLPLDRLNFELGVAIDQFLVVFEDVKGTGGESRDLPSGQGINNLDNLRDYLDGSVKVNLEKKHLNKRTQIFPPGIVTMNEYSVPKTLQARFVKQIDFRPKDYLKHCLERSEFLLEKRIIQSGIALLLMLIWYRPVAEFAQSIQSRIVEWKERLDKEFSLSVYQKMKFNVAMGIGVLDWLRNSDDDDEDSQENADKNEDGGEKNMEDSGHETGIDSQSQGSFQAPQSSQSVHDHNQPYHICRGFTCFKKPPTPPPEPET
Paired box protein Pax-8, sequence (Q06710 whole entry): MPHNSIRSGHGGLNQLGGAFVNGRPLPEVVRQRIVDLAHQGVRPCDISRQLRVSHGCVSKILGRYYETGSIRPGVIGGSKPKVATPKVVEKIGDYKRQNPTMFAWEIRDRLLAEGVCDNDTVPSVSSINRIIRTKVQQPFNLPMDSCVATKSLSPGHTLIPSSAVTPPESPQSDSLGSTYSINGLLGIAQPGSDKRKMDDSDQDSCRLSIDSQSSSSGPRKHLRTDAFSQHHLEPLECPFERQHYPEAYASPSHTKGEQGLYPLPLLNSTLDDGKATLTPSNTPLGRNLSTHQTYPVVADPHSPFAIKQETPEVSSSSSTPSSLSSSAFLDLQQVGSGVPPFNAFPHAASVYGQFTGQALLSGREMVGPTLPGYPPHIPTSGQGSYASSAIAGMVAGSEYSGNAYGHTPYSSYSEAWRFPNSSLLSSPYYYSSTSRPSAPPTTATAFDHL

O=C(NNC(=S)Nc1ccccc1)c1ccc2ncccc2c1
IC50 [1]: > 122 µM (inactive)

O=C(Cc1cccs1)NNC(=S)NCc1ccc(Cl)cc1
IC50 [1]: > 122 µM (inactive)

COc1cccc(-c2cn3nc4c(nc3n2)CCCC4)c1
EC50 [2]: 16.2 µM (active) | EC50 [3]: > 150 µM (not active) | EC50 [4]: 12.9 µM (active) | EC50 [5]: 21.6 µM (active) | IC50 [6]: > 20 µM (inactive)

CCOC(=O)C(NC(C)=O)(N1CCc2ccccc2C1)C(F)(F)F (configuration not stated)
IC50 [7]: > 29.9 µM (inactive) | EC50 [8]: > 29.9 µM (inactive) | EC50 [9]: 0.0868 µM (active) | IC50 [10]: 2.8 µM (active)

COc1cc(C(=O)NNC(=S)NC(=O)c2ccc3c(c2)OCO3)cc(OC)c1OC
IC50 [1]: > 122 µM (inactive) | EC50 [11]: 1.36 µM (active) | EC50 [12]: 3.37 µM (active)

COc1ccc(Nc2ccc(OC)cc2)cc1
EC50 [13]: > 380 µM (inactive) | IC50 [14]: 26.2 µM (active) | AC50 [15]: 121 µM (active) | CC50 [16]: 21 µM (active)

Oc1ccc2ccccc2c1/C=N/c1nc2c(s1)CCCC2
IC50 [6]: > 20 µM (inactive)

COc1cccc(-c2ccc3c(c2)[C@@H]2[C@@H](CCN2S(=O)(=O)c2ccccc2OC)[C@H](CO)N3C)c1
AC50 [17]: 50.6 µM (active) | AC50 [18]: 27.8 µM (active) | AC50 [19]: 10.3 µM (active) | AC50 [20]: 18 µM (active)

CN1C(=O)c2cc(NC(=O)c3cccs3)ccc2OC[C@H]2O[C@@H](CC(=O)NCCN3CCCCC3)CC[C@@H]21
AC50 [21]: 4.24 µM (active)

CC1(C)CC(=O)C(/C=N\CCc2ccc(O)cc2)=C(O)C1
IC50 [7]: > 29.9 µM (inactive) | EC50 [8]: > 29.9 µM (inactive) | EC50 [9]: 1.84 µM (active) | IC50 [10]: 8.81 µM (active)

CC(=O)N(/N=C1\Sc2ccccc2C1=O)c1ccccc1
IC50 [6]: 6.46 µM (active)

C[C@H]1CN([C@@H](C)CO)S(=O)(=O)c2ccc(-c3ccc(C#N)cc3)cc2O[C@H]1CN(C)CC1CC1
AC50 [22]: 3.08 µM (active) | AC50 [23]: 2.79 µM (active) | AC50 [24]: 2.27 µM (active) | AC50 [25]: 1.76 µM (active)

COc1cccc(Nc2nc(NCCO)c3ccccc3n2)c1
IC50 [7]: > 29.9 µM (inactive) | EC50 [8]: > 29.9 µM (inactive) | EC50 [9]: 4.4 µM (active) | IC50 [10]: 14 µM (inactive)
